The text below walks through data of ChEMBL document CHEMBL1151030, “Synthesis of tetrazol-1-yl analogs of HMG-COA reductase inhibitor BMS180431 (formerly BMY21950)” (Bioorg Med Chem Lett, 1992).

Experiment [1] deals with T1, 3-hydroxy-3-methylglutaryl-coenzyme A reductase (Mus musculus, UniProt Q01237).
T1 sequence (Q01237 whole entry): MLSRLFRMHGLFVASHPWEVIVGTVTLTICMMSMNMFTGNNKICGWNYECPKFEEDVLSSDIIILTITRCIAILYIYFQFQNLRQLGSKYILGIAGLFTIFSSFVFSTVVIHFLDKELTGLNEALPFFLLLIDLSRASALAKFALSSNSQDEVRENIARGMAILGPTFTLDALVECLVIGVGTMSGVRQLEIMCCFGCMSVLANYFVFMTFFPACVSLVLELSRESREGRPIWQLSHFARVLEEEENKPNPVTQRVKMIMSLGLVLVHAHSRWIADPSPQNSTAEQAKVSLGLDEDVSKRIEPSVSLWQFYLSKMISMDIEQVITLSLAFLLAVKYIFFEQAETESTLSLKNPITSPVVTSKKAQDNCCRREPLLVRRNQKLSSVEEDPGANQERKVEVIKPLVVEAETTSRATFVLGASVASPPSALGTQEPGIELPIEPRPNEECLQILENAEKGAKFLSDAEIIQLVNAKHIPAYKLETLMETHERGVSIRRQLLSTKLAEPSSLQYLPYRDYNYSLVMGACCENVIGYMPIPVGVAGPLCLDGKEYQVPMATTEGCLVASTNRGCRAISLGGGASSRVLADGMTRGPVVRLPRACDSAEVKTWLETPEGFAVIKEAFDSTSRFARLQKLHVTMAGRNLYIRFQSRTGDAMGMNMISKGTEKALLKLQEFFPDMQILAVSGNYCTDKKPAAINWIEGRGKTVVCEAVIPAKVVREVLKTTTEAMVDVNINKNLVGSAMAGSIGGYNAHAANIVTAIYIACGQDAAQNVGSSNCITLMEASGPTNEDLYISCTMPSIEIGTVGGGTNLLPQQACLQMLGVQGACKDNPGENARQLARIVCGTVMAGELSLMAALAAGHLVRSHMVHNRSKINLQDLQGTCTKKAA
In words: In vitro inhibitory activity against isolated enzyme HMG-CoA reductase.

The target in experiment [2] is T2, 3-hydroxy-3-methylglutaryl-coenzyme A reductase (Rattus norvegicus, UniProt P51639).
T2 sequence (P51639 whole entry): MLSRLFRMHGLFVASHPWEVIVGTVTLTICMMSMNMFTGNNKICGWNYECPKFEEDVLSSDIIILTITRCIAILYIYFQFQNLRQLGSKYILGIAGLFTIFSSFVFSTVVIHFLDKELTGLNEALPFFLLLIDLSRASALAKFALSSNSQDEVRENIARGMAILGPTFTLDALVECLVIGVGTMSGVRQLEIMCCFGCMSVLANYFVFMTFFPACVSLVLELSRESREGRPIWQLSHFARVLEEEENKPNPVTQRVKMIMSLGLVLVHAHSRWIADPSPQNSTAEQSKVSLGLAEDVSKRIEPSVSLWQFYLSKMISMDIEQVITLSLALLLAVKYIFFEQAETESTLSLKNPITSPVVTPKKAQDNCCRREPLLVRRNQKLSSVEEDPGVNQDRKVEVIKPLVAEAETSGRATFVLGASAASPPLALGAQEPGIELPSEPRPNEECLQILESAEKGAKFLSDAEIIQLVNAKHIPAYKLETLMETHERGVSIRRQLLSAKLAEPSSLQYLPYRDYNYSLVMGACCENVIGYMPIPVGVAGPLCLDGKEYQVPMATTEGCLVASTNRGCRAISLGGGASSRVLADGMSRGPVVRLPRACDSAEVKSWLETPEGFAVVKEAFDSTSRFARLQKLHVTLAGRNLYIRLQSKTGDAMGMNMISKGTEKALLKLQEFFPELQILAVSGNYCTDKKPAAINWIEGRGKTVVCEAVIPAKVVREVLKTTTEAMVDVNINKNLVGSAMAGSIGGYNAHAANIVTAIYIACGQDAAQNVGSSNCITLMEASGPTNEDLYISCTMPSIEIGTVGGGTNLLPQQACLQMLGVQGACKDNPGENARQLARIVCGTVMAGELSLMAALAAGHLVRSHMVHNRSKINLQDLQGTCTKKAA
In words: Compound was evaluated for inhibitory activity against HMG-CoA reductase from rat hepatocyte. Format: cell-based.

The target of experiment [3] is T3, 3-hydroxy-3-methylglutaryl-coenzyme A reductase (Homo sapiens, UniProt P04035).
T3 sequence (P04035 whole entry): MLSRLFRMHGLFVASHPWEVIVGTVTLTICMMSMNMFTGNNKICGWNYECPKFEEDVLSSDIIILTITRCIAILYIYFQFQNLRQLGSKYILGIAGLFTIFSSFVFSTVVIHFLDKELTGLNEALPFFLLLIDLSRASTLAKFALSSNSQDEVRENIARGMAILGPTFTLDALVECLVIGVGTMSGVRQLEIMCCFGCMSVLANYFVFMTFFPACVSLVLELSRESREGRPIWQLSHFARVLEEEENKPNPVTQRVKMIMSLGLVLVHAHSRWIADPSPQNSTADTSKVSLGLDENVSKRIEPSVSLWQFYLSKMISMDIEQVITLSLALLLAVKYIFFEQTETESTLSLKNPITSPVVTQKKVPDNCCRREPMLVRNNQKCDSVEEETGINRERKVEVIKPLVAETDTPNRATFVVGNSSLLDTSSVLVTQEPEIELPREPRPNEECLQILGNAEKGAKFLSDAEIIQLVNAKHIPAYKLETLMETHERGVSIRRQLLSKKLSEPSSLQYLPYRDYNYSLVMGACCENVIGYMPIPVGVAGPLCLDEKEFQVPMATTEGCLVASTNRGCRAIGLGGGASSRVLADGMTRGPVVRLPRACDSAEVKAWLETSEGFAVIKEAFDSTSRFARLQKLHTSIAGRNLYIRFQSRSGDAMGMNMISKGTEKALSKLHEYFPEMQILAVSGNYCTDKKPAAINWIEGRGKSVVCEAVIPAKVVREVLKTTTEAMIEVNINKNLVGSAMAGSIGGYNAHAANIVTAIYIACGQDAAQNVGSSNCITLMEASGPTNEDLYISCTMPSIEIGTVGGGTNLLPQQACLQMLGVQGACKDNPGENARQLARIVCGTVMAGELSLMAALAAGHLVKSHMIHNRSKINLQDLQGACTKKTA
In words: Compound was evaluated for inhibitory activity against HMG-CoA reductase in HepG2 cells. Format: cell-based.

The next experiment concerns HepG2. The experiment can be described thus: Ratio of inhibitory activity against HMG-CoA reductase of HepG2 cells vs hepatocytes. Format: cell-based.
The target in experiment [4] is T3, 3-hydroxy-3-methylglutaryl-coenzyme A reductase. The experiment can be described thus: Compound was evaluated for inhibitory activity against HMG-CoA reductase in adrenal cell preparation. In kind it is cell-based.
For experiment [5], the target named is T2, 3-hydroxy-3-methylglutaryl-coenzyme A reductase. The experiment can be described thus: Compound was evaluated for inhibitory activity against HMG-CoA reductase in testes cell preparation. Format: tissue-based, Testis.
Experiment [6] has the same target. In words: Compound was evaluated for inhibitory activity against HMG-CoA reductase in spleen cell preparation. In kind it is tissue-based.
For another experiment, the system named is Hepatocyte. The experiment can be described thus: Ratio of inhibitory activity of HepG2 to hepatocyte. Format: cell-based.

What is called IC50 is the point on the concentration scale where inhibition reaches its midpoint. Read a low IC50 as greater potency. Turning to `O=C(O)C[C@H](O)C[C@H](O)/C=C/C(=C(c1ccc(F)cc1)c1ccc(F)cc1)n1nnnc1-c1ccccc1`, the IC50 in experiment [1] is more than 100 µM.

In turn, `CC[C@H](C)C(=O)O[C@H]1C[C@@H](C)C=C2C=C[C@H](C)[C@H](CC[C@@H]3C[C@@H](O)CC(=O)O3)[C@H]21` [LOVASTATIN] returned an IC50 in experiment [1] of 0.027 µM.

Turning to `O=C(O)C[C@H](O)C[C@H](O)/C=C/C(=C(c1ccc(F)cc1)c1ccc(F)cc1)n1cnnn1`, the IC50 in experiment [1] came to 0.12 µM; in experiment [2] it was 0.02 µM; in experiment [3], 1.72 µM. In addition, the Ratio with HepG2 was determined as 86.

Turning to `Cn1nnnc1C(/C=C/[C@@H](O)C[C@@H](O)CC(=O)O)=C(c1ccc(F)cc1)c1ccc(F)cc1`, the IC50 is 1.6 µM in experiment [4]; 1.8 µM in experiment [5]; 0.043 µM in experiment [1]; 1.34 µM in experiment [3]; 3.2 µM in experiment [6]. In the experiment with HepG2, the Ratio stood at 62.

With `Cc1nnnn1C(/C=C/[C@@H](O)C[C@@H](O)CC(=O)O)=C(c1ccc(F)cc1)c1ccc(F)cc1`, the IC50 in experiment [1] worked out at 0.63 µM; in experiment [2] it was 0.1 µM; in experiment [3], 1.29 µM. In addition, in the experiment on Hepatocyte, the Ratio amounted to 13.
